In this test the target is T1, ΔF508-CFTR (Homo sapiens, UniProt P13569, DEL508-508).
T1 construct: expressed in transfected cells
Kind of test: Membrane potential optical (FRET/VIPR) assay, identification of correction compounds. In kind it is cell-based. The conditions noted are these: Table 3, assay not given; for Emax: read-out: % Activity / % Efficacy (relative efficacy). The method, boiled down: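 NIH3T3 mouse fibroblasts stably expressing ΔF508-CFTR were exposed to compound for 16 h at 37° C in serum-free medium, then loaded with DiSBAC2(3)/CC2-DMPE. After addition of 10 μM forskolin plus 20 μM genistein in Cl⁻-free gluconate bath (pH 7.4), depolarization from Cl⁻ efflux was read by FRET (VIPR II).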

EC50 and Emax data for 53 compounds are collected here from patent US7977322B2 (Vertex Pharmaceuticals Incorporated, priority 2004, dated 2011).

Each structure is given as a SMILES string. Some results are limits rather than exact numbers.

T1 sequence (P13569 with tags, fused parts or gaps DEL508-508): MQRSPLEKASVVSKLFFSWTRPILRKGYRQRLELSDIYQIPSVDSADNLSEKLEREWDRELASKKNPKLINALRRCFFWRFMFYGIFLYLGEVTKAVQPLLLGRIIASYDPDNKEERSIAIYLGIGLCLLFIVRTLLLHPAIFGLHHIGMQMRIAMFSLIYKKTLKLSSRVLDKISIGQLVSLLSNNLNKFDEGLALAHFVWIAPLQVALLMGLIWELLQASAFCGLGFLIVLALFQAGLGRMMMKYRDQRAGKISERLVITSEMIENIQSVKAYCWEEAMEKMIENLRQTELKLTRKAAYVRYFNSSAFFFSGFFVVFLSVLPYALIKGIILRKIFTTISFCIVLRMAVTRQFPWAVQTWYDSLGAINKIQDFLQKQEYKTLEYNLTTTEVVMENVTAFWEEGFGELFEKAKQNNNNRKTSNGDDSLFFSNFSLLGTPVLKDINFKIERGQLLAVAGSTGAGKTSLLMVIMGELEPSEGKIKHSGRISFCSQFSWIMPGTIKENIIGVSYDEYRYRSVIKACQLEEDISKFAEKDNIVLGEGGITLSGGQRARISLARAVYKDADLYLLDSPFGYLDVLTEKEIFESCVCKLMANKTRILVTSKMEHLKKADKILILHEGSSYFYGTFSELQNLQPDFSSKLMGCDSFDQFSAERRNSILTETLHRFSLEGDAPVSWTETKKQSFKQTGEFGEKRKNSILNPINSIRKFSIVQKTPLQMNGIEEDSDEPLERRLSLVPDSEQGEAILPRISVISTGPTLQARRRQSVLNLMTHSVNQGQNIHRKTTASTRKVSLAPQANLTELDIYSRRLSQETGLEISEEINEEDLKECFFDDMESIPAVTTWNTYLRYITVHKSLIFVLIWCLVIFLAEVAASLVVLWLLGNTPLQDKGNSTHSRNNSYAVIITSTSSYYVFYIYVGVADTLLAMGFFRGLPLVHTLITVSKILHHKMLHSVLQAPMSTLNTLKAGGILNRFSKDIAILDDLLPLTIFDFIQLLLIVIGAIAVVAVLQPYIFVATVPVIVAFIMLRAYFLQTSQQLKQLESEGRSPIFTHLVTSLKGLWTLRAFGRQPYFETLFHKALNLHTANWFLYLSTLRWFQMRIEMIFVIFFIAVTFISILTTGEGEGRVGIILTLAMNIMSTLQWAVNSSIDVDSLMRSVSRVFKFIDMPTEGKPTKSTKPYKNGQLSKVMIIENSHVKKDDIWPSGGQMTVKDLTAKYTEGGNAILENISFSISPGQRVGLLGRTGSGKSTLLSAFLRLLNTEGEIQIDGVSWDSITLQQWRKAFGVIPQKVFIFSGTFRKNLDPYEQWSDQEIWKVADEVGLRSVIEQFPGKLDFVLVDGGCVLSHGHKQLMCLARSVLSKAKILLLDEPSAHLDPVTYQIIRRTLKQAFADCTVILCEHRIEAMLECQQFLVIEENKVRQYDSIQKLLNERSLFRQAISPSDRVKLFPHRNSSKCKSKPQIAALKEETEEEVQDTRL

As usually defined, the EC50 is the concentration needed to bring the measured effect to its halfway point. Take `COc1ccc(C(c2cnc(NC(=O)C3(c4ccc5c(c4)OCO5)CC3)s2)N2CC[C@@H](O)C2)cc1` (stereo partly shown) [Example 352]: the EC50 was in the range of 10 to 25 µM and the Emax is more than 100%.
On to `COCC1CCCN1C(c1cccc(OC)c1)c1cnc(NC(=O)C2(c3ccc4c(c3)OCO4)CC2)s1` (stereo not shown) [Example 353], for which the EC50 is less than 10 µM and the Emax was more than 100%.
Turning to `COc1ccccc1C(c1cnc(NC(=O)C2(c3ccc4c(c3)OCO4)CC2)s1)N1CCCC1` (stereo not shown) [Example 354], the EC50 was less than 10 µM and the Emax is more than 100%.
On to `COCC1CCCN1C(c1ccccc1)c1cnc(NC(=O)C2(c3ccc4c(c3)OCO4)CC2)s1` (stereo not shown) [Example 355], for which the EC50 was less than 10 µM and the Emax was more than 100%.
As for `CN(C)C(c1ccccc1)c1cnc(NC(=O)C2(c3ccc4c(c3)OCO4)CC2)s1` (stereo not shown) [Example 356], the EC50 is 10 to 25 µM and the Emax was more than 100%.
In the case of `CCN(CC)C(c1cccc(OC)c1)c1cnc(NC(=O)C2(c3ccc4c(c3)OCO4)CC2)s1` (stereo not shown) [Example 357], the EC50 is less than 10 µM and the Emax was more than 100%.
Take `COCC1CCCN1C(c1cnc(NC(=O)C2(c3ccc4c(c3)OCO4)CC2)s1)c1ccccc1OC` (stereo not shown) [Example 358]: the EC50 was in the range of 10 to 25 µM and the Emax was more than 100%.
Regarding `O=C(Nc1ncc(C(c2ccccc2)N2CCCC2)s1)C1(c2ccc3c(c2)OCO3)CC1` (stereo not shown) [Example 359], the concentration giving a half-maximal response (EC50) was less than 10 µM and the Emax was more than 100%.
Regarding `COc1cccc(C(c2csc(NC(=O)C3(c4ccc5c(c4)OCO5)CC3)n2)N2CCC(O)CC2)c1` (stereo not shown) [Example 360], the EC50 was in the range of 10 to 25 µM and the Emax is more than 100%.
For `COc1ccc(C(c2cnc(NC(=O)C3(c4ccc5c(c4)OCO5)CC3)s2)N2CCCCC2)cc1` (stereo not shown) [Example 361], in that order: less than 10 µM and more than 100%.
As to `COc1ccc(C(c2cnc(NC(=O)C3(c4ccc5c(c4)OCO5)CC3)s2)N2CCCC2)cc1` (stereo not shown) [Example 362], the concentration for a half-maximal effect (EC50) was in the range of 10 to 25 µM and the Emax was more than 100%.
On to `COc1ccccc1C(c1cnc(NC(=O)C2(c3ccc4c(c3)OCO4)CC2)s1)N(C)C` (stereo not shown) [Example 364], for which the concentration for a half-maximal effect (EC50) was 10 to 25 µM and the Emax was more than 100%.
In the case of `CCN(CC)C(c1cnc(NC(=O)C2(c3ccc4c(c3)OCO4)CC2)s1)c1ccccc1OC` (stereo not shown) [Example 365], the EC50 is less than 10 µM and the Emax was more than 100%.
For the compound `COc1cccc(C(c2cnc(NC(=O)C3(c4ccc5c(c4)OCO5)CC3)s2)N(C)C)c1` (stereo not shown) [Example 366], the concentration giving a half-maximal response (EC50) fell in the range of 10 to 25 µM and the Emax was more than 100%.
Take `COc1cccc(C(c2cnc(NC(=O)C3(c4ccc5c(c4)OCO5)CC3)s2)N2CC[C@@H](O)C2)c1` (stereo partly shown) [Example 367]: the EC50 is less than 10 µM and the Emax was more than 100%.
Turning to `O=C(Nc1ncc(C(c2ccccc2)N2CC[C@@H](O)C2)s1)C1(c2ccc3c(c2)OCO3)CC1` (stereo partly shown) [Example 368], the 50% effective concentration (EC50) was 10 to 25 µM and the Emax is more than 100%.
Turning to `O=C(Nc1ncc(C(c2ccccc2)N2CCOCC2)s1)C1(c2ccc3c(c2)OCO3)CC1` (stereo not shown) [Example 369], the EC50 is less than 10 µM and the Emax was more than 100%.
Regarding `COc1cccc(C(c2cnc(NC(=O)C3(c4ccc5c(c4)OCO5)CC3)s2)N2CCC[C@@H]2C(N)=O)c1` (stereo partly shown) [Example 370], the EC50 is less than 10 µM and the Emax was more than 100%.
With `O=C(Nc1ncc(C(c2ccccc2)N2CCCCC2)s1)C1(c2ccc3c(c2)OCO3)CC1` (stereo not shown) [Example 371], the 50% effective concentration (EC50) was less than 10 µM and the Emax is more than 100%.
In the case of `CCN(CC)C(c1ccccc1)c1cnc(NC(=O)C2(c3ccc4c(c3)OCO4)CC2)s1` (stereo not shown) [Example 372], the EC50 is less than 10 µM and the Emax is more than 100%.
The corresponding values for `COc1cccc(C(c2cnc(NC(=O)C3(c4ccc5c(c4)OCO5)CC3)s2)N2CCCC2)c1` (stereo not shown) [Example 373] are less than 10 µM and more than 100%.
On to `COc1cccc(C(c2cnc(NC(=O)C3(c4ccc5c(c4)OCO5)CC3)s2)N2CCOCC2)c1` (stereo not shown) [Example 374], for which the EC50 was less than 10 µM and the Emax is more than 100%.
In the case of `COCC1CCCN1C(c1ccc(S(C)(=O)=O)cc1)c1cnc(NC(=O)C2(c3ccc4c(c3)OCO4)CC2)s1` (stereo not shown) [Example 375], the EC50 lay in the range of 10 to 25 µM and the Emax was in the range of 25 to 100%.
Turning to `CCN(CC)C(c1ccc(S(C)(=O)=O)cc1)c1cnc(NC(=O)C2(c3ccc4c(c3)OCO4)CC2)s1` (stereo not shown) [Example 376], the EC50 is 10 to 25 µM and the Emax was 25 to 100%.
For the compound `CS(=O)(=O)c1ccc(C(c2cnc(NC(=O)C3(c4ccc5c(c4)OCO5)CC3)s2)N2CCC[C@H]2C(N)=O)cc1` (stereo partly shown) [Example 377], the EC50 lay within 10 to 25 µM and the Emax fell in the range of 25 to 100%.
In the case of `CS(=O)(=O)c1ccc(C(c2cnc(NC(=O)C3(c4ccc5c(c4)OCO5)CC3)s2)N2CC[C@@H](O)C2)cc1` (stereo partly shown) [Example 378], the EC50 was in the range of 10 to 25 µM and the Emax fell in the range of 25 to 100%.
On to `COC[C@@H]1CCCN1C(c1ccc(S(C)(=O)=O)cc1)c1cnc(NC(=O)C2(c3ccc4c(c3)OCO4)CC2)s1` (stereo partly shown) [Example 379], for which the EC50 was 10 to 25 µM and the Emax fell in the range of 25 to 100%.
Regarding `CS(=O)(=O)c1ccc(C(c2cnc(NC(=O)C3(c4ccc5c(c4)OCO5)CC3)s2)N2CCC(O)CC2)cc1` (stereo not shown) [Example 380], the EC50 was 10 to 25 µM and the Emax fell in the range of 25 to 100%.
As to `CN(C)C(c1ccc(S(C)(=O)=O)cc1)c1cnc(NC(=O)C2(c3ccc4c(c3)OCO4)CC2)s1` (stereo not shown) [Example 381], the EC50 lay in the range of 10 to 25 µM and the Emax was in the range of 25 to 100%.
On to `CS(=O)(=O)c1ccc(C(c2cnc(NC(=O)C3(c4ccc5c(c4)OCO5)CC3)s2)N2CCOCC2)cc1` (stereo not shown) [Example 382], for which the EC50 was in the range of 10 to 25 µM and the Emax was more than 100%.
For `CC(C)(C)C(c1cnc(NC(=O)C2(c3ccc4c(c3)OCO4)CC2)s1)N1CCCCC1` (stereo not shown) [Example 383], the concentration for a half-maximal effect (EC50) fell in the range of 10 to 25 µM and the Emax is more than 100%.
Regarding `CC(C)(C)C(c1cnc(NC(=O)C2(c3ccc4c(c3)OCO4)CC2)s1)N1CCC[C@H]1C(N)=O` (stereo partly shown) [Example 384], the EC50 fell in the range of 10 to 25 µM and the Emax is more than 100%.
Regarding `CS(=O)(=O)c1ccc(C(c2cnc(NC(=O)C3(c4ccc5c(c4)OCO5)CC3)s2)N2CCCC2)cc1` (stereo not shown) [Example 385], the EC50 is less than 10 µM and the Emax is more than 100%.
For the compound `C/C=C/c1cnc(NC(=O)C2(c3ccc4c(c3)OCO4)CC2)s1` [Example 386], the EC50 lay within 10 to 25 µM and the Emax was more than 100%.
As to `COC[C@@H]1CCCN1C(c1cnc(NC(=O)C2(c3ccc4c(c3)OCO4)CC2)s1)C(C)(C)C` (stereo partly shown) [Example 387], the EC50 fell in the range of 10 to 25 µM and the Emax is more than 100%.
Regarding `CS(=O)(=O)c1ccc(C(c2cnc(NC(=O)C3(c4ccc5c(c4)OCO5)CC3)s2)N2CCCCC2)cc1` (stereo not shown) [Example 388], the EC50 is less than 10 µM and the Emax was more than 100%.
For `COCC1CCCN1C(c1cnc(NC(=O)C2(c3ccc4c(c3)OCO4)CC2)s1)C(C)(C)C` (stereo not shown) [Example 389], in that order: 10 to 25 µM and more than 100%.
The corresponding values for `CC(C)(C)C(c1cnc(NC(=O)C2(c3ccc4c(c3)OCO4)CC2)s1)N1CC[C@@H](O)C1` (stereo partly shown) [Example 390] are 10 to 25 µM and more than 100%.
As for `CC(C)(C)C(c1cnc(NC(=O)C2(c3ccc4c(c3)OCO4)CC2)s1)N1CCCC1` (stereo not shown) [Example 391], the EC50 was 10 to 25 µM and the Emax is more than 100%.
Take `CC(C)(C)C(c1cnc(NC(=O)C2(c3ccc4c(c3)OCO4)CC2)s1)N1CCC(O)CC1` (stereo not shown) [Example 392]: the EC50 was 10 to 25 µM and the Emax is more than 100%.
Regarding `CCN(CC)C(c1cnc(NC(=O)C2(c3ccc4c(c3)OCO4)CC2)s1)C(C)(C)C` (stereo not shown) [Example 393], the EC50 lay in the range of 10 to 25 µM and the Emax is more than 100%.
Turning to `CC(C)(C)C(c1cnc(NC(=O)C2(c3ccc4c(c3)OCO4)CC2)s1)N1CCOCC1` (stereo not shown) [Example 394], the EC50 was less than 10 µM and the Emax is more than 100%.
For `CN(C)C(c1cnc(NC(=O)C2(c3ccc4c(c3)OCO4)CC2)s1)C(C)(C)C` (stereo not shown) [Example 395], the EC50 was 10 to 25 µM and the Emax was more than 100%.
Regarding `CCC(c1cnc(NC(=O)C2(c3ccc4c(c3)OCO4)CC2)s1)N1CCC(O)CC1` (stereo not shown) [Example 396], the EC50 is 10 to 25 µM and the Emax lay within 25 to 100%.
In the case of `CCC(c1cnc(NC(=O)C2(c3ccc4c(c3)OCO4)CC2)s1)N1CCCC1` (stereo not shown) [Example 397], the half-maximal effective concentration (EC50) lay within 10 to 25 µM and the Emax was in the range of 25 to 100%.
For `CCC(c1cnc(NC(=O)C2(c3ccc4c(c3)OCO4)CC2)s1)N1CCOCC1` (stereo not shown) [Example 398], in that order: 10 to 25 µM and 25 to 100%.
For the compound `COc1ccccc1C(c1cnc(NC(=O)C2(c3ccc4c(c3)OCO4)CC2)s1)N1CCOCC1` (stereo not shown) [Example 399], the EC50 is less than 10 µM and the Emax was more than 100%.
The corresponding values for `COc1ccc(C(c2cnc(NC(=O)C3(c4ccc5c(c4)OCO5)CC3)s2)N2CCOCC2)cc1` (stereo not shown) [Example 400] are less than 10 µM and more than 100%.
Take `CCC(c1cnc(NC(=O)C2(c3ccc4c(c3)OCO4)CC2)s1)N1CCC[C@@H]1COC` (stereo partly shown) [Example 401]: the EC50 lay in the range of 10 to 25 µM and the Emax was more than 100%.
The corresponding values for `CCC(c1cnc(NC(=O)C2(c3ccc4c(c3)OCO4)CC2)s1)N1CC[C@@H](O)C1` (stereo partly shown) [Example 402] are 10 to 25 µM and more than 100%.
For the compound `CCC(c1cnc(NC(=O)C2(c3ccc4c(c3)OCO4)CC2)s1)N1CCCCC1` (stereo not shown) [Example 403], the EC50 was 10 to 25 µM and the Emax was more than 100%.
Take `CCC(c1cnc(NC(=O)C2(c3ccc4c(c3)OCO4)CC2)s1)N1CCC[C@H]1COC` (stereo partly shown) [Example 404]: the EC50 was in the range of 10 to 25 µM and the Emax is more than 100%.
The corresponding values for `CN1CCCC1CCNC(c1cnc(NC(=O)C2(c3ccc4c(c3)OCO4)CC2)s1)c1ccccc1Cl` (stereo not shown) [Example 405] are less than 10 µM and 25 to 100%.
